Values after ≈ are worked out from the molar mass of the structure shown.
What was measured:
[1] = test system: DHFR (human) versus PTR1 (Leishmania major); test: Selectivity index, ratio of IC50 for human DHFR to IC50 for Leishmania major PTR1; assay type: toxicity; conditions: human DHFR enzyme and Leishmania major PTR1 enzyme, read-out: Ratio IC50
[2] = target: T1, Pteridine reductase 1 (Leishmania major, UniProt Q01782); test: Inhibition of recombinant Leishmania major PTR1 expressed in Escherichia coli BL21 using folic acid as substrate in presence of NADPH
T1 sequence (Q01782 whole entry): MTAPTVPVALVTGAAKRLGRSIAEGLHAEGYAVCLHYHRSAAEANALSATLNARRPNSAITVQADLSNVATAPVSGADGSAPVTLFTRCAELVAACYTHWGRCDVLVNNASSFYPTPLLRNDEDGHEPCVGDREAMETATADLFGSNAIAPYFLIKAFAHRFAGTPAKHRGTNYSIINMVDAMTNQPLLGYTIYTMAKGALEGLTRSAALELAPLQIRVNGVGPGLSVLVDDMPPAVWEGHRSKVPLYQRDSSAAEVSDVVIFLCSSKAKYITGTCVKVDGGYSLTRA

[3] = test system: Leishmania infantum; test: Antileishmanial activity against Leishmania infantum MHOM/TN/1980/IPT1 incubated for 48 hrs by Neubauer hemocytometer analysis; assay type: functional, organism-based; conditions: MHOM/TN/1980/IPT1, 48 h
[4] = test system: Leishmania tropica; test: Antileishmanial activity against Leishmania tropica MHOM/A7/1974/SAF-K27 incubated for 48 hrs by Neubauer hemocytometer analysis; assay type: functional, organism-based; conditions: MHOM/A7/1974/SAF-K27, 48 h
[5] = test system: L929; test: (§1) Cytotoxicity against mouse L929 cells by alamar blue method; assay type: toxicity, cell-based; conditions: l929
[6] = as §1; assay type: toxicity, cell-based; conditions: mouse, L929 cells
[7] = test system: Leishmania infantum; test: Antileishmanial activity against Leishmania infantum MHOM/TN/1980/IPT1 incubated for 48 hrs by XTT method; assay type: functional, organism-based; conditions: MHOM/TN/1980/IPT1, 48 h
[8] = test system: RAW264.7; test: (§2) Cytotoxicity against mouse RAW264.7 cells by alamar blue method; assay type: toxicity, cell-based; conditions: raw264.7
[9] = as §2; assay type: toxicity, cell-based; conditions: mouse, RAW264.7 cells
[10] = test system: Leishmania tropica; test: Antileishmanial activity against Leishmania tropica MHOM/A7/1974/SAF-K27 incubated for 48 hrs by XTT method; assay type: functional, organism-based; conditions: MHOM/A7/1974/SAF-K27, 48 h

Structure (SMILES)	IC50 [2]	IC50 [3]	IC50 [4]	selectivity ratio [1]	log10 IC50 (µg/mL) [5]	IC50 [6]	IC50 [7]	log10 IC50 (µg/mL) [8]	IC50 [9]	IC50 [10]
CCN(CC)c1ncc2nc(NC(=O)c3ccc(Cl)c([N+](=O)[O-])c3)sc2n1	254 µM	15.1 µg/mL (≈ 37.2 µM)	15.8 µg/mL (≈ 38.7 µM)	12.6	1.28	19.1 µg/mL (≈ 46.8 µM)	15.3 µg/mL (≈ 37.6 µM)	0.65	4.47 µg/mL (≈ 11 µM)	15.6 µg/mL (≈ 38.2 µM)
O=C(Nc1nc2cnc(N3CCCC3)nc2s1)c1ccc(Cl)cc1	–	114 µg/mL (≈ 315 µM)	137 µg/mL (≈ 380 µM)	–	–	–	117 µg/mL (≈ 326 µM)	–	–	141 µg/mL (≈ 392 µM)
CCOC(=O)N1CCN(c2ncc3nc(NC(=O)c4ccc(Cl)cc4Cl)sc3n2)CC1	–	> 300 µg/mL	> 300 µg/mL	–	–	–	> 300 µg/mL	–	–	> 300 µg/mL
CN(C)c1ncc2nc(NC(=O)c3ccc(Cl)cc3Cl)sc2n1	–	84.1 µg/mL (≈ 228 µM)	86.6 µg/mL (≈ 235 µM)	–	–	–	81.1 µg/mL (≈ 220 µM)	–	–	86.2 µg/mL (≈ 234 µM)
CCN(CC)c1ncc2nc(NC(=O)c3ccc(Cl)cc3Cl)sc2n1	–	123 µg/mL (≈ 310 µM)	120 µg/mL (≈ 303 µM)	–	–	–	124 µg/mL (≈ 312 µM)	–	–	125 µg/mL (≈ 315 µM)
O=C(Nc1nc2cnc(N3CCCCC3)nc2s1)c1ccc(Cl)c(Cl)c1	–	25.7 µg/mL (≈ 63 µM)	25.1 µg/mL (≈ 61.6 µM)	–	–	–	25.8 µg/mL (≈ 63.2 µM)	–	–	25.5 µg/mL (≈ 62.4 µM)
CC(=O)N1CCN(c2ncc3nc(NC(=O)c4ccc(Cl)cc4)sc3n2)CC1	–	> 300 µg/mL	> 300 µg/mL	–	–	–	> 300 µg/mL	–	–	> 300 µg/mL
O=C(Nc1nc2cnc(N3CCOCC3)nc2s1)c1ccc(Cl)cc1	–	> 300 µg/mL	> 300 µg/mL	–	–	–	> 300 µg/mL	–	–	> 300 µg/mL
O=C(Nc1nc2cnc(N3CCOCC3)nc2s1)c1ccc(Cl)cc1Cl	–	91.1 µg/mL (≈ 222 µM)	90.3 µg/mL (≈ 220 µM)	–	–	–	90.9 µg/mL (≈ 222 µM)	–	–	90.6 µg/mL (≈ 221 µM)
O=C(Nc1nc2cnc(N3CCCC3)nc2s1)c1ccc(Cl)cc1Cl	–	52.4 µg/mL (≈ 133 µM)	51.2 µg/mL (≈ 130 µM)	–	–	–	52.6 µg/mL (≈ 133 µM)	–	–	52 µg/mL (≈ 132 µM)
O=C(Nc1nc2cnc(N3CCCCC3)nc2s1)c1ccc(Cl)cc1	–	119 µg/mL (≈ 317 µM)	116 µg/mL (≈ 310 µM)	–	–	–	121 µg/mL (≈ 324 µM)	–	–	122 µg/mL (≈ 327 µM)

Continued, in another order:

IC50 [2]	IC50 [3]	IC50 [4]	Structure (SMILES)	selectivity ratio [1]	log10 IC50 (µg/mL) [5]	IC50 [6]	IC50 [7]	log10 IC50 (µg/mL) [8]	IC50 [9]	IC50 [10]
–	77.7 µg/mL (≈ 172 µM)	75 µg/mL (≈ 166 µM)	CC(=O)N1CCN(c2ncc3nc(NC(=O)c4ccc(Cl)cc4Cl)sc3n2)CC1	–	–	–	78.6 µg/mL (≈ 174 µM)	–	–	75.8 µg/mL (≈ 168 µM)
–	> 300 µg/mL	> 300 µg/mL	O=C(Nc1nc2cnc(N3CCCC3)nc2s1)c1ccc(Cl)c(Cl)c1	–	–	–	> 300 µg/mL	–	–	> 300 µg/mL
–	35.5 µg/mL (≈ 76.8 µM)	34.4 µg/mL (≈ 74.4 µM)	CC(=O)N1CCN(c2ncc3nc(NC(=O)c4ccc(Cl)c([N+](=O)[O-])c4)sc3n2)CC1	–	–	–	36.1 µg/mL (≈ 78.1 µM)	–	–	35.3 µg/mL (≈ 76.3 µM)
–	58.8 µg/mL (≈ 135 µM)	51.5 µg/mL (≈ 119 µM)	CN1CCN(c2ncc3nc(NC(=O)c4ccc(Cl)c([N+](=O)[O-])c4)sc3n2)CC1	–	–	–	60.4 µg/mL (≈ 139 µM)	–	–	53.8 µg/mL (≈ 124 µM)
–	64 µg/mL (≈ 153 µM)	56.8 µg/mL (≈ 136 µM)	O=C(Nc1nc2cnc(N3CCCCC3)nc2s1)c1ccc(Cl)c([N+](=O)[O-])c1	–	–	–	63.5 µg/mL (≈ 152 µM)	–	–	56.7 µg/mL (≈ 135 µM)
–	14.1 µg/mL (≈ 39.3 µM)	14.8 µg/mL (≈ 41.1 µM)	O=C(Nc1nc2cnc(Cl)nc2s1)c1ccc(Cl)c(Cl)c1	–	–	–	14.4 µg/mL (≈ 40 µM)	–	–	15.1 µg/mL (≈ 41.9 µM)
–	16.8 µg/mL (≈ 41.1 µM)	16.3 µg/mL (≈ 39.9 µM)	O=C(Nc1nc2cnc(N3CCCCC3)nc2s1)c1ccc(Cl)cc1Cl	–	–	–	16.8 µg/mL (≈ 41.1 µM)	–	–	16.3 µg/mL (≈ 39.8 µM)
–	191 µg/mL (≈ 528 µM)	186 µg/mL (≈ 515 µM)	CCN(CC)c1ncc2nc(NC(=O)c3ccc(Cl)cc3)sc2n1	–	–	–	189 µg/mL (≈ 523 µM)	–	–	188 µg/mL (≈ 520 µM)
–	44.1 µg/mL (≈ 108 µM)	40.3 µg/mL (≈ 98.2 µM)	O=C(Nc1nc2cnc(N3CCOCC3)nc2s1)c1ccc(Cl)c(Cl)c1	–	–	–	44.6 µg/mL (≈ 109 µM)	–	–	41.4 µg/mL (≈ 101 µM)
–	> 300 µg/mL	> 300 µg/mL	CN(C)c1ncc2nc(NC(=O)c3ccc(Cl)cc3)sc2n1	–	–	–	> 300 µg/mL	–	–	> 300 µg/mL
–	30.5 µg/mL (≈ 82.4 µM)	30.6 µg/mL (≈ 82.7 µM)	O=C(Nc1nc2cnc(Cl)nc2s1)c1ccc(Cl)c([N+](=O)[O-])c1	–	–	–	30.6 µg/mL (≈ 82.6 µM)	–	–	30.7 µg/mL (≈ 82.9 µM)
–	112 µg/mL (≈ 304 µM)	116 µg/mL (≈ 315 µM)	CN(C)c1ncc2nc(NC(=O)c3ccc(Cl)c(Cl)c3)sc2n1	–	–	–	114 µg/mL (≈ 310 µM)	–	–	119 µg/mL (≈ 322 µM)
–	126 µg/mL (≈ 279 µM)	147 µg/mL (≈ 326 µM)	CC(=O)N1CCN(c2ncc3nc(NC(=O)c4ccc(Cl)c(Cl)c4)sc3n2)CC1	–	–	–	127 µg/mL (≈ 282 µM)	–	–	149 µg/mL (≈ 331 µM)
–	52.4 µg/mL (≈ 117 µM)	53.9 µg/mL (≈ 121 µM)	CCOC(=O)N1CCN(c2ncc3nc(NC(=O)c4ccc(Cl)cc4)sc3n2)CC1	–	–	–	53.5 µg/mL (≈ 120 µM)	–	–	54.1 µg/mL (≈ 121 µM)

Source: ChEMBL document CHEMBL5352486, “Design, synthesis, in vitro - In vivo biological evaluation of novel thiazolopyrimidine compounds as antileishmanial agent with PTR1 inhibition” (Eur J Med Chem, 2023)
